Row | Structure (SMILES) | melting point
1 | CC(C)C[C@H](NC(=O)Cc1ccc2c(c1)Nc1ccccc1S2)C(=O)N[C@@H](CC(C)C)C(=O)N[C@H]1CCOC1O (stereo partly drawn) [Example 16, N-(10H-phenothiazin-2-ylacetyl)-L-leucyl-N^1-[(3S)-2-hydroxytetrahydrofuran-3-yl]-L-leucinamide] | 168 to 168.5 °C
2 | COC1OCC[C@@H]1NC(=O)[C@H](CC(C)C)NC(=O)C(C)(C)NC(=O)COc1ccc2c(c1)Nc1ccccc1S2 (some centres unmarked) | 119 to 120 °C
3 | COC1OCC[C@@H]1NC(=O)[C@H](CC(C)C)NC(=O)[C@H](CCCCNC(=O)OCc1ccccc1)NC(=O)c1ccc2c(c1)Nc1ccccc1S2 (some centres unmarked) | 102 to 103 °C
4 | O=C(COc1ccc2c(c1)Nc1ccccc1S2)NCC(=O)N[C@@H](CC1CCCCC1)C(=O)N[C@H]1CCOC1O (stereo partly drawn) [Example 56, N-[(10H-phenothiazin-2-yloxy)acetyl]glycyl-3-cyclohexyl-N^1-[(3S)-2-hydroxytetrahydrofuran-3-yl]-L-alaninamide] | 212 to 215 °C
5 | COC1OCC[C@@H]1NC(=O)[C@H](CC(C)C)NC(=O)[C@H](CC(C)C)NC(=O)c1ccc2c(c1)Nc1ccccc1S2 (some centres unmarked) | 180 to 180.5 °C
6 | C[C@H](NC(=O)Cc1ccc2c(c1)Nc1ccccc1S2)C(=O)N[C@@H](CC1CCCCC1)C(=O)N[C@H]1CCOC1O (stereo partly drawn) [Example 18, N-(10H-phenothiazin-2-ylacetyl)-L-alanyl-3-cyclohexyl-N^1-[(3S)-2-hydroxytetrahydrofuran-3-yl]-L-alaninamide] | 215 to 217 °C
7 | CC(C)CN(CC(=O)N[C@H]1CCOC1O)C(=O)CNC(=O)COc1ccc2c(c1)Nc1ccccc1S2 (some centres unmarked) | 122 to 124 °C
8 | COC1OCC[C@@H]1NC(=O)[C@H](CC(C)C)NC(=O)CNC(=O)COc1ccc2c(c1)Nc1ccccc1S2 (some centres unmarked) | 181 to 182 °C
9 | COC1OCC[C@@H]1NC(=O)[C@H](CC(C)C)NC(=O)[C@@H]1CCCN1C(=O)c1ccc2c(c1)Nc1ccccc1S2 (some centres unmarked) | 243 to 243.5 °C
10 | NC(=O)[C@H](Cc1ccccc1)N(C(=O)CNC(=O)COc1ccc2c(c1)Nc1ccccc1S2)[C@H]1CCOC1O (stereo partly drawn) [Example 57, N-[(10H-phenothiazin-2-yloxy)acetyl]glycyl-N^1-[(3S)-2-hydroxytetrahydrofuran-3-yl]-L-phenylalaninamide] | 207 to 208 °C
11 | CC[C@H](NC(=O)COc1ccc2c(c1)Nc1ccccc1S2)C(=O)N(C(=O)[C@@H](N)CC(C)C)[C@H]1CCOC1O (stereo partly drawn) [Example 48, N^1-[(3S)-2-hydroxytetrahydrofuran-3-yl]-N^1-((2S)-2-{[(10H-phenothiazin-2-yloxy)acetyl]amino}butanoyl)-L-leucinamide] | 160 to 161 °C
12 | CC(C)C[C@H](NC(=O)[C@H](COC(C)(C)C)NC(=O)Cc1ccc2c(c1)Nc1ccccc1S2)C(=O)N[C@H]1CCOC1O (stereo partly drawn) [Example 17, O-(tert-butyl)-N-(10H-phenothiazin-2-ylacetyl)-L-seryl-N^1-[(3S)-2-hydroxytetrahydrofuran-3-yl]-L-leucinamide] | 135 to 136 °C
13 | CC(C)C[C@H](NC(=O)c1ccc2c(c1)Nc1ccccc1S2)C(=O)N[C@@H](CC(C)C)C(=O)N[C@H]1CCOC1O (stereo partly drawn) [Example 8, N-(10H-phenothiazin-2-ylcarbonyl)leucyl-N^1-[(3S)-2-hydroxytetrahydrofuran-3-yl]-L-leucinamide] | 144 to 144.5 °C

Further lines, results first:

Row | melting point | Structure (SMILES)
14 | 137 to 138 °C | CC(C)C[C@H](NC(=O)[C@@H](NC(=O)COc1ccc2c(c1)Nc1ccccc1S2)c1ccccc1)C(=O)N[C@H]1CCOC1O (stereo partly drawn) [Example 52, N^1-[(3S)-2-hydroxytetrahydrofuran-3-yl]-N^2-((2S)-2-{[(10H-phenothiazin-2-yloxy)acetyl]amino}-2-phenylethanoyl)-L-leucinamide]
15 | 126 to 126.5 °C | CC(C)C[C@H](NC(=O)CNC(=O)c1ccc2c(c1)Nc1ccccc1S2)C(=O)N[C@H]1CCOC1O (stereo partly drawn) [Example 7, N-(10H-phenothiazin-2-ylcarbonyl)glycyl-N^1-[(3S)-2-hydroxytetrahydrofuran-3-yl]-L-leucinamide]
16 | 141.5 to 142 °C | CC(C)C[C@H](NC(=O)COc1ccc2c(c1)Nc1ccccc1S2)C(=O)N[C@@H](CC(C)C)C(=O)N[C@H]1CCOC1O (stereo partly drawn) [Example 40, N-[(10H-phenothiazin-2-yloxy)acetyl]-L-leucyl-N^1-[(3S)-2-hydroxytetrahydrofuran-3-yl]-L-leucinamide]
17 | 92 to 93 °C | COC1OCC[C@@H]1NC(=O)[C@H](CC(C)C)NC(=O)[C@@H](NC(=O)COc1ccc2c(c1)Nc1ccccc1S2)[C@@H](C)O (some centres unmarked)
18 | 225 to 226 °C | CCC[C@H](NC(=O)COc1ccc2c(c1)Nc1ccccc1S2)C(=O)N[C@@H](CC(C)C)C(=O)N[C@H]1CCOC1OC (some centres unmarked)
19 | 215 to 217 °C | COC1OCC[C@@H]1N(C(=O)[C@@H](NC(=O)COc1ccc2c(c1)Nc1ccccc1S2)c1ccccc1)C(=O)[C@@H](N)CC(C)C (some centres unmarked)
20 | 137 to 138 °C | CC(C)C[C@H](NC(=O)CN(C)C(=O)COc1ccc2c(c1)Nc1ccccc1S2)C(=O)N[C@H]1CCOC1O (stereo partly drawn) [Example 45, N-methyl-N-[(10H-phenothiazin-2-yloxy)acetyl]glycyl-N^1-[(3S)-2-hydroxytetrahydrofuran-3-yl]-L-leucinamide]
21 | 144 to 146 °C | CC(C)C[C@H](NC(=O)[C@H](C)NC(=O)COc1ccc2c(c1)Nc1ccccc1S2)C(=O)N[C@H]1CCOC1O (stereo partly drawn) [Example 42, N-[(10H-phenothiazin-2-yloxy)acetyl]-L-alanyl-N^1-[(3S)-2-hydroxytetrahydrofuran-3-yl]-L-leucinamide]
22 | 152 to 153 °C | COC1OCC[C@@H]1NC(=O)[C@H](CC(C)C)NC(=O)[C@@H](NC(=O)COc1ccc2c(c1)Nc1ccccc1S2)C(C)(C)C (some centres unmarked)
23 | 138 to 140 °C | CC(C)C[C@H](NC(=O)C(C)(C)NC(=O)COc1ccc2c(c1)Nc1ccccc1S2)C(=O)N[C@H]1CCOC1O (some centres unmarked) [Example 54]
24 | 161 to 162 °C | CC(C)C[C@H](NC(=O)CCNC(=O)COc1ccc2c(c1)Nc1ccccc1S2)C(=O)N[C@H]1CCOC1O (stereo partly drawn) [Example 44, N-[(10H-phenothiazin-2-yloxy)acetyl]-β-alanyl-N^1-[(3S)-2-hydroxytetrahydrofuran-3-yl]-L-leucinamide]
25 | 195 to 196 °C | CC(C)C[C@H](NC(=O)[C@@H](NC(=O)COc1ccc2c(c1)Nc1ccccc1S2)[C@@H](C)O)C(=O)N[C@H]1CCOC1O (stereo partly drawn) [Example 51, N-[(10H-phenothiazin-2-yloxy)acetyl]-L-threonyl-N^1-[(3S)-2-hydroxytetrahydrofuran-3-yl]-L-leucinamide]
26 | 195 to 196 °C | CCC[C@H](NC(=O)COc1ccc2c(c1)Nc1ccccc1S2)C(=O)N[C@@H](CC(C)C)C(=O)N[C@H]1CCOC1O (stereo partly drawn) [Example 49, N-[(10H-phenothiazin-2-yloxy)acetyl]-L-norvalyl-N^1-[(3S)-2-hydroxytetrahydrofuran-3-yl]-L-leucinamide]

From patent publication US7384933B2, “Derivatives of 2-hydroxytetrahydrofuran and their use as medicaments” (priority 2003, dated 2008)
